Legend:
Type in all cases: physicochemical
[1] = Solid form stability study of salts and/or co-crystals at 25° C./60% RH and 40° C./75% RH
Experimental: The stability of the prepared salts and/or co-crystals was analyzed after 1 and 2 weeks at 25° C. and 60% relative humidity and 40° C. and 75% relative humidity. […] None of the phosphate, tartrate, or nicotinate salts and/or co-crystals underwent a form change during the stability testing, and each of them retained greater than 97% purity over the two weeks of the study. In fact, both the tartrate and nicotinate both retained greater than 99% purity.

[2] = Kinetic solubility in water and Medisca Oral Mix (HPLC solubility, purity and pH of supernatant); settings: RT; for Purity (area %) of supernatant: for reference only; for Purity (area %) of supernatant / pH / Solubility: listed as L-tartrate salt and/or co-crystal; for Solubility: calculated using freebase, target conc. 7 mg/mL
Experimental: (§1) The kinetic solubility was evaluated for nicotinate, phosphate, L-tartrate, and fumarate salts and/or co-crystals of sepiapterin in water and […] Oral Mix. X-ray powder diffraction (XRPD) was performed for the residual solids to identify form change/disproportionation. Solids were suspended into the media with target conc. of 7 mg/mL (calculated by freebase).

[3] = Form change/disproportionation of residual solids by XRPD after suspension in water or Medisca Oral Mix; settings: for Form change (residual solids, XRPD): RT, listed as L-tartrate salt and/or co-crystal
Experimental: as §1, with “freebase). […] Oral Mix after 1 hour. […] Oral Mix.” for “freebase).”

C[C@H](O)C(=O)C1=Nc2c(nc(N)[nH]c2=O)NC1 [L-Tartrate, sepiapterin]
Stability compared with the other salts and/or co-crystals tested [1]: noticeably more stable than the others | Underwent a form change during the stability testing ([1]; 1 and 2 weeks, 25° C./60% RH and 40° C./75% RH): None | Form change ([1]; 1 week, 25° C./60% RH): No | Purity (Area %) ([1]; 1 week, 25° C./60% RH): 98.61 Area % | Purity vs. initial (%) ([1]; 1 week, 25° C./60% RH): 99.9% | Form change ([1]; 1 week, 40° C./75% RH): No | Purity (Area %) ([1]; 1 week, 40° C./75% RH): 99.06 Area % | Purity vs. initial (%) ([1]; 1 week, 40° C./75% RH): 99.3% | Form change ([1]; 2 weeks, 25° C./60% RH): No | Purity (Area %) ([1]; 2 weeks, 25° C./60% RH): 99.39 Area % | Purity vs. initial (%) ([1]; 2 weeks, 25° C./60% RH): 99.6% | Form change ([1]; 2 weeks, 40° C./75% RH): No | Purity (Area %) ([1]; 2 weeks, 40° C./75% RH): 99.00 Area % | Purity vs. initial (%) ([1]; 2 weeks, 40° C./75% RH): 99.3% | Purity (Area %) ([1]; Initial): 99.75 Area % | Observation ([2]; Medisca Oral Mix, 1 hr): Turbid | Purity (area %) of supernatant ([2]; Medisca Oral Mix, 1 hr): 99.68 area % | pH ([2]; Medisca Oral Mix, 1 hr): 3.3 | Observation ([2]; Medisca Oral Mix, 4 hr): Turbid | Solubility ([2]; Medisca Oral Mix, 4 hr): 2500 µg/mL | Purity (area %) of supernatant ([2]; Medisca Oral Mix, 4 hr): 99.54 area % | pH ([2]; Medisca Oral Mix, 4 hr): 3.3 | Observation ([2]; Medisca Oral Mix, 24 hr): Turbid | Solubility ([2]; Medisca Oral Mix, 24 hr): 3200 µg/mL | Purity (area %) of supernatant ([2]; Medisca Oral Mix, 24 hr): 95.67 area % | pH ([2]; Medisca Oral Mix, 24 hr): 3.3 | Observation ([2]; Water, 1 hr): Turbid | Purity (area %) of supernatant ([2]; Water, 1 hr): 99.34 area % | pH ([2]; Water, 1 hr): 2.5 | Observation ([2]; Water, 4 hr): Turbid | Purity (area %) of supernatant ([2]; Water, 4 hr): 99.07 area % | pH ([2]; Water, 4 hr): 2.5 | Observation ([2]; Water, 24 hr): Turbid | Purity (area %) of supernatant ([2]; Water, 24 hr): 95.61 area % | pH ([2]; Water, 24 hr): 2.5 | Form change (residual solids, XRPD) ([3]; Medisca Oral Mix, 1 hr): Yes | Form change (residual solids, XRPD) ([3]; Medisca Oral Mix, 4 hr): Yes | Form change (residual solids, XRPD) ([3]; Medisca Oral Mix, 24 hr): Yes | Form of the residual solids in Medisca Oral Mix ([3]; Medisca Oral Mix, after 1 hour): converted to freebase | Form change (residual solids, XRPD) ([3]; Water, 1 hr): Yes | Form change (residual solids, XRPD) ([3]; Water, 4 hr): Yes | Form change (residual solids, XRPD) ([3]; Water, 24 hr): Yes | Form of the residual solids in water ([3]; water, after 1 hour): converted to freebase

C[C@H](O)C(=O)C1=Nc2c(nc(N)[nH]c2=O)NC1 [Malonate, sepiapterin]
Purity (Area %) ([1]; 1 week, 25° C./60% RH): 99.39 Area % | Purity vs. initial (%) ([1]; 1 week, 25° C./60% RH): 99.9% | Purity (Area %) ([1]; 1 week, 40° C./75% RH): 99.14 Area % | Purity vs. initial (%) ([1]; 1 week, 40° C./75% RH): 99.7% | Purity (Area %) ([1]; 2 weeks, 25° C./60% RH): 99.23 Area % | Purity vs. initial (%) ([1]; 2 weeks, 25° C./60% RH): 99.8% | Purity (Area %) ([1]; 2 weeks, 40° C./75% RH): 97.81 Area % | Purity vs. initial (%) ([1]; 2 weeks, 40° C./75% RH): 98.3% | Purity (Area %) ([1]; Initial): 99.45 Area %

C[C@H](O)C(=O)C1=Nc2c(nc(N)[nH]c2=O)NC1 [Methanesulfonate, sepiapterin]
Form change ([1]; 1 week, 25° C./60% RH): No | Purity (Area %) ([1]; 1 week, 25° C./60% RH): 95.26 Area % | Purity vs. initial (%) ([1]; 1 week, 25° C./60% RH): 104.5% | Form change ([1]; 1 week, 40° C./75% RH): No | Purity (Area %) ([1]; 1 week, 40° C./75% RH): 88.68 Area % | Purity vs. initial (%) ([1]; 1 week, 40° C./75% RH): 97.3% | Form change ([1]; 2 weeks, 25° C./60% RH): No | Purity (Area %) ([1]; 2 weeks, 25° C./60% RH): 91.95 Area % | Purity vs. initial (%) ([1]; 2 weeks, 25° C./60% RH): 100.9% | Form change ([1]; 2 weeks, 40° C./75% RH): No | Purity (Area %) ([1]; 2 weeks, 40° C./75% RH): 85.97 Area % | Purity vs. initial (%) ([1]; 2 weeks, 40° C./75% RH): 94.3% | Purity (Area %) ([1]; Initial): 91.14 Area %

C[C@H](O)C(=O)C1=Nc2c(nc(N)[nH]c2=O)NC1 [Sulfate, sepiapterin]
Form change ([1]; 1 week, 25° C./60% RH): No | Purity (Area %) ([1]; 1 week, 25° C./60% RH): 95.22 Area % | Purity vs. initial (%) ([1]; 1 week, 25° C./60% RH): 97.8% | Form change ([1]; 1 week, 40° C./75% RH): No | Purity (Area %) ([1]; 1 week, 40° C./75% RH): 89.44 Area % | Purity vs. initial (%) ([1]; 1 week, 40° C./75% RH): 91.9% | Form change ([1]; 2 weeks, 25° C./60% RH): No | Purity (Area %) ([1]; 2 weeks, 25° C./60% RH): 93.46 Area % | Purity vs. initial (%) ([1]; 2 weeks, 25° C./60% RH): 96.0% | Form change ([1]; 2 weeks, 40° C./75% RH): No | Purity (Area %) ([1]; 2 weeks, 40° C./75% RH): 88.20 Area % | Purity vs. initial (%) ([1]; 2 weeks, 40° C./75% RH): 90.6% | Purity (Area %) ([1]; Initial): 97.33 Area %

C[C@H](O)C(=O)C1=Nc2c(nc(N)[nH]c2=O)NC1 [Toluenesulfonate, sepiapterin]
Form change ([1]; 1 week, 25° C./60% RH): No | Purity (Area %) ([1]; 1 week, 25° C./60% RH): 94.19 Area % | Purity vs. initial (%) ([1]; 1 week, 25° C./60% RH): 97.3% | Form change ([1]; 1 week, 40° C./75% RH): No | Purity (Area %) ([1]; 1 week, 40° C./75% RH): 89.11 Area % | Purity vs. initial (%) ([1]; 1 week, 40° C./75% RH): 92.0% | Form change ([1]; 2 weeks, 25° C./60% RH): No | Purity (Area %) ([1]; 2 weeks, 25° C./60% RH): 91.40 Area % | Purity vs. initial (%) ([1]; 2 weeks, 25° C./60% RH): 94.4% | Form change ([1]; 2 weeks, 40° C./75% RH): No | Purity (Area %) ([1]; 2 weeks, 40° C./75% RH): 88.12 Area % | Purity vs. initial (%) ([1]; 2 weeks, 40° C./75% RH): 91.0% | Purity (Area %) ([1]; Initial): 96.84 Area %

Reference: US12637465B2, “Pharmaceutically acceptable salts of sepiapterin” (PTC Therapeutics MP, Inc., priority 2018, dated 2026)
